Reference: ChEMBL document CHEMBL1201862, “PubChem BioAssay data set” (2004)
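Cells were grown in 96-well plates and exposed to each compound for 48 hours at five concentrations; endpoints were interpolated linearly between bracketing concentrations, or set to the highest concentration if not reached. GI50 marks 50% less growth.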 Calls of active or inactive are those of the source. Cut-off read from the data, not from the text of the source: active = GI50 up to about 1.1 µM and inactive = higher.

Tests used:
Assay in all cases: NCI tumour cell line growth inhibition, 48 h
A498 = test system: A498
ACHN = test system: ACHN
CAKI-1 = test system: CAKI-1
CCRF-CEM = test system: CCRF-CEM
COLO 205 = test system: COLO 205
DLD-1 = test system: DLD-1
DMS-114 = test system: DMS-114
DMS-273 = test system: DMS-273
EKVX = test system: EKVX
HCT-15 = test system: HCT-15
HL-60 = test system: HL-60
HOP-18 = test system: HOP-18
HOP-92 = test system: HOP-92
HT-29 = test system: HT-29
IGROV-1 = test system: IGROV-1
K562 = test system: K562
KM-20L2 = test system: KM-20L2
LOX IMVI = test system: LOX IMVI
LXFL 529 = test system: LXFL 529
M14 = test system: M14
M19-MEL = test system: M19-MEL
MOLT-4 = test system: MOLT-4
Malme-3M = test system: Malme-3M
NCI-H226 = test system: NCI-H226
NCI-H23 = test system: NCI-H23
NCI-H460 = test system: NCI-H460
NCI-H522 = test system: NCI-H522
OVCAR-3 = test system: OVCAR-3
OVCAR-8 = test system: OVCAR-8
RPMI-8226 = test system: RPMI-8226
RXF 631 = test system: RXF 631
SF-268 = test system: SF-268
SF-295 = test system: SF-295
SF-539 = test system: SF-539
SK-MEL-28 = test system: SK-MEL-28
SK-MEL-2 = test system: SK-MEL-2
SK-MEL-5 = test system: SK-MEL-5
SK-OV-3 = test system: SK-OV-3
SN12C = test system: SN12C
SNB-19 = test system: SNB-19
SNB-75 = test system: SNB-75
SNB-78 = test system: SNB-78
SW-620 = test system: SW-620
TK-10 = test system: TK-10
U-251 = test system: U-251
UACC-62 = test system: UACC-62
UO-31 = test system: UO-31
XF498 = test system: XF498
786-0 = test system: 786-0
A549 = test system: A549
HCC 2998 = test system: HCC 2998
HCT-116 = test system: HCT-116
HOP-62 = test system: HOP-62
KM12 = test system: KM12
OVCAR-5 = test system: OVCAR-5
RXF 393 = test system: RXF 393
UACC-257 = test system: UACC-257

Measured: GI50

CC1(C)CCc2cc3c(-c4ccccc4)cc(=O)oc3cc2O1
> 100 µM: HCT-15
inactive: A498 > 100 µM | ACHN > 100 µM | CAKI-1 > 100 µM | CCRF-CEM > 100 µM | COLO 205 > 100 µM | DLD-1 > 100 µM | DMS-114 > 100 µM | DMS-273 > 100 µM | EKVX > 100 µM | HL-60 > 100 µM | HOP-18 47.8 µM | HOP-92 21.1 µM | HT-29 > 100 µM | IGROV-1 > 100 µM | K562 > 100 µM | KM-20L2 > 100 µM | LOX IMVI > 100 µM | LXFL 529 > 100 µM | M14 > 100 µM | M19-MEL > 100 µM | MOLT-4 > 100 µM | Malme-3M > 100 µM | NCI-H226 > 100 µM | NCI-H23 > 100 µM | NCI-H460 > 100 µM | NCI-H522 > 100 µM | OVCAR-3 > 100 µM | OVCAR-8 > 100 µM | RPMI-8226 > 100 µM | RXF 631 > 100 µM | SF-268 > 100 µM | SF-295 48.3 µM | SF-539 38.5 µM | SK-MEL-28 > 100 µM | SK-MEL-2 > 100 µM | SK-MEL-5 > 100 µM | SK-OV-3 > 100 µM | SN12C > 100 µM | SNB-19 87.5 µM | SNB-75 13.7 µM | SNB-78 85.7 µM | SW-620 > 100 µM | TK-10 > 100 µM | U-251 > 100 µM | UACC-62 > 100 µM | UO-31 > 100 µM | XF498 41 µM

[O-]/[N+](=C\c1ccccc1)[C@H](COCc1ccccc1)c1ccccc1
inactive: 786-0 > 100 µM | A498 > 100 µM | A549 51.6 µM | ACHN 66.4 µM | CCRF-CEM 50.6 µM | COLO 205 > 100 µM | DLD-1 > 100 µM | DMS-114 54.1 µM | DMS-273 93.8 µM | EKVX 25.1 µM | HCC 2998 > 100 µM | HCT-116 40.8 µM | HL-60 25.2 µM | HOP-18 20.3 µM | HOP-62 > 100 µM | HOP-92 24.8 µM | HT-29 71 µM | IGROV-1 > 100 µM | K562 48.9 µM | KM-20L2 > 100 µM | KM12 70.3 µM | LOX IMVI > 100 µM | LXFL 529 > 100 µM | M19-MEL > 100 µM | MOLT-4 36.5 µM | Malme-3M > 100 µM | NCI-H23 4.45 µM | NCI-H460 > 100 µM | NCI-H522 29.5 µM | OVCAR-3 27.6 µM | OVCAR-5 > 100 µM | OVCAR-8 > 100 µM | RPMI-8226 30.2 µM | RXF 393 36.6 µM | RXF 631 > 100 µM | SF-268 55.2 µM | SF-295 36 µM | SF-539 > 100 µM | SK-MEL-28 > 100 µM | SK-MEL-2 27.3 µM | SK-MEL-5 63.1 µM | SK-OV-3 > 100 µM | SNB-19 59.8 µM | SNB-75 74.3 µM | SNB-78 66.5 µM | SW-620 > 100 µM | TK-10 > 100 µM | U-251 80.9 µM | UACC-257 > 100 µM | UO-31 24.2 µM | XF498 27.8 µM
